{"source": "patent US4694069A", "about": "“Kibdelosporangium aridum SK&F-AAD-609” (SmithKline Beckman Corporation, priority 1985, dated 1987)", "key": {"[1]": {"details": "30:70 acetonitrile:water"}, "[2]": {"test_system": "S. aureus 910 (methicillin resistant strain)", "experiment": "In vitro MIC, standard microtiter assay", "format": "cell-based, Staphylococcus aureus", "details": "Staphylococcus aureus; Table A; methicillin resistant strain; read-out: MIC", "description": "(§1) In vitro minimum inhibitory concentrations (MIC) of the AAD-609 complex and of Factors A, B, CC2 and D, using standard microtiter assay procedures, against a number of microorganisms are reported in Table A, which follows."}, "[3]": {"test_system": "S. aureus 674", "experiment": "In vitro MIC, standard microtiter assay", "format": "cell-based, Staphylococcus aureus", "details": "Staphylococcus aureus, 674; Table A; read-out: MIC", "description": "as §1"}, "[4]": {"test_system": "S. aureus 209P", "experiment": "In vitro MIC, standard microtiter assay", "format": "cell-based, Staphylococcus aureus", "details": "Staphylococcus aureus, 209P; Table A; read-out: MIC", "description": "as §1"}, "[5]": {"test_system": "S. aureus 675", "experiment": "In vitro MIC, standard microtiter assay", "format": "cell-based, Staphylococcus aureus", "details": "Staphylococcus aureus, 675; Table A; read-out: MIC", "description": "as §1"}, "[6]": {"test_system": "Staphylococcus aureus HH127", "experiment": "In vitro MIC, standard microtiter assay", "format": "cell-based", "description": "as §1"}, "[7]": {"test_system": "S. epidermidis 651 (methicillin resistant strain)", "experiment": "In vitro MIC, standard microtiter assay", "format": "cell-based", "details": "methicillin resistant strain", "description": "as §1"}, "[8]": {"test_system": "Clostridium difficile", "experiment": "In vitro MIC, standard microtiter assay", "format": "cell-based", "details": "Clostridioides difficile; Table A; read-out: MIC", "description": "as §1"}, "[9]": {"test_system": "S. epidermidis 2683", "experiment": "In vitro MIC, standard microtiter assay", "format": "cell-based", "details": "Staphylococcus epidermidis, 2683; Table A; read-out: MIC", "description": "as §1"}, "[10]": {"test_system": "Streptococcus faecalis 657", "experiment": "In vitro MIC, standard microtiter assay", "format": "cell-based", "details": "Enterococcus faecalis, 657; Table A; read-out: MIC", "description": "as §1"}, "[11]": {"test_system": "S. epidermidis 2479", "experiment": "In vitro MIC, standard microtiter assay", "format": "cell-based", "description": "as §1"}, "[12]": {"test_system": "Salmonella gallinarum BC-595", "experiment": "In vitro MIC, standard microtiter assay", "format": "cell-based", "details": "Salmonella enterica, GALLINARUM; Table A; read-out: MIC", "description": "as §1"}, "[13]": {"test_system": "S. epidermidis 2265", "experiment": "In vitro MIC, standard microtiter assay", "format": "cell-based", "details": "Staphylococcus epidermidis, 2265; Table A; read-out: MIC", "description": "as §1"}, "[14]": {"test_system": "Escherichia coli 12140", "experiment": "In vitro MIC, standard microtiter assay", "format": "cell-based", "details": "Escherichia coli, 12140; Table A; read-out: MIC", "description": "as §1"}, "[15]": {"test_system": "S. faecalis 34358", "experiment": "In vitro MIC, standard microtiter assay", "format": "cell-based, Streptococcus faecalis", "description": "as §1"}, "[16]": {"test_system": "S. aureus 2620 (methicillin resistant strain)", "experiment": "MIC", "format": "cell-based", "details": "Staphylococcus aureus; Table B; methicillin resistant strain; read-out: MIC", "description": "as §1"}, "[17]": {"test_system": "Hubbard cross day-old chicks", "experiment": "Growth of chicks", "format": "in vivo", "details": "8 reps", "description": "The effects of virginiamycin, AAD-609 Complex (containing less than 5% AAD-216 antibiotics) and AAD-216 Complex on growth of chicks were evaluated as follows. Hubbard cross day-old chicks were housed in wire-floored poultry caging. Eight chicks were included in each pen/rep. Weights and feed intakes were recorded on days 10 and 17. Results showing animal weight as a percentage of a control fed a normal rye-based ration and animal feed intake per unit weight gain as a percentage of animal feed intake (g) per unit weight gain (g) of the controls are reported in the following table."}, "[18]": {"test_system": "mixed intestinal microflora (cecum fluid)", "experiment": "Swine in vitro model", "details": "one level, up to 166.67 ppm; 4-5 h", "description": "A swine in vitro model was used to characterize AAD-609 antibiotics as potential feed additives in swine and poultry. Mixed intestinal microflora were obtained from ileally-cannulated pigs. Virginiamycin, carbadox, AAD-216 and its components, and AAD-609 Complex (containing less than 5% AAD-216 antibiotics) were tested at one level. […] Glucose (GLU) was spared from microbial degradation. Volatile fatty acids (TOTAL) were the major end-product of microbial metabolism while lactic acid production were reduced. […] Since AAD-609 and AAD-216 give similar in vitro results, it is expected that AAD-609 has similar growth-promoting activity in monogastric animals. Also, the in vitro activity of AAD-609 is similar to the activity previously observed with bacitracin in this model.\nThe swine in vitro model was carried out by incubating 1.5 ml of cecum fluid, from a swine fed normal rations, mixed with 1.5 ml of a nutrient broth (3 mg casein hydrolysate, 30 mg maltose, 1.25 mg urea, 0.5 mg lysine, and 30 mg cellobiose) and with up to 166.67 parts per million of a selected growth promotant at 39° C., with oscillation, for about 4-5 hours. Results, percentage of control, are reported in the following table in which all abbreviations are as above except that LLA means L-lactate and ETOH means ethanol."}, "[19]": {"test_system": "SK&F-AAD-609", "experiment": "Susceptibility of SK&F-AAD-609 to antibiotics (diffusion method, BBL susceptibility disks)", "format": "cell-based, Kibdelosporangium aridum subsp. largum", "details": "28° C., one week", "description": "Susceptibility of SK&F-AAD-609 to antibiotics was examined by placing BBL susceptibility disks on nutrient agar plates seeded with SK&F-ADD-609 as an agar overlay. Plates were placed at 4° C. for one hour to permit diffusion of the anitbiotics and, subsequently, incubated at 28° C. Diameters of the zones of inhibition were measured after incubation for one week.\nSusceptibility to Antibiotics. […] Chlortetracycline (5 μg) produced 17-18 mm zones of inhibition; tetracycline (5 μg) 9-12 mm zones; rifampin (5 μg) 10-12 mm zones; novobiocin (5 μg) 30-35 mm zones. All zones of inhibition contained at least a few resistant colonies."}}, "note": "Where two headings read alike, the source gives them in different places."}
{"molecule": "CNC1C(=O)NC2C(=O)NC(C(=O)NC3C(=O)NC4C(=O)NC(C(=O)NC(C(=O)O)c5cc(O)cc(OC6OC(CO)C(O)C(O)C6O)c5-c5cc4ccc5O)C(O)c4cc(Cl)c(c(Cl)c4)Oc4cc3cc(c4OC3OC(CO)C(O)C(O)C3NC(=O)CCCCCCCC(C)C)Oc3ccc(cc3Cl)C2O)c2cc(cc(O)c2Cl)Oc2cc1ccc2O", "note": "(centres unmarked) [AAD-609 B]", "values": [{"measurement": "pKa (A) carboxyl on aglycone", "setting": "[1]", "value": 3.5}, {"measurement": "pKa (C) amino group on aglycone", "setting": "[1]", "value": 7.1}, {"measurement": "MIC", "setting": "[2]", "value": 1.6, "unit": "µg/mL"}, {"measurement": "MIC", "setting": "[3]", "value": 0.8, "unit": "µg/mL"}, {"measurement": "MIC", "setting": "[4]", "value": 0.8, "unit": "µg/mL"}, {"measurement": "MIC", "setting": "[5]", "value": 6.3, "unit": "µg/mL"}, {"measurement": "MIC", "setting": "[6]; Staphylococcus aureus, HH127, Table A, read-out: MIC", "value": 1.6, "unit": "µg/mL"}, {"measurement": "MIC", "setting": "[6]; Table B", "value": 1.6, "unit": "µg/mL"}, {"measurement": "MIC", "setting": "[7]; Staphylococcus epidermidis, Table A, read-out: MIC", "value": 50, "unit": "µg/mL"}, {"measurement": "MIC", "setting": "[7]; Table B", "value": 50, "unit": "µg/mL"}, {"measurement": "MIC", "setting": "[8]", "value": 0.5, "unit": "µg/mL"}, {"measurement": "MIC", "setting": "[9]", "value": 25, "unit": "µg/mL"}, {"measurement": "MIC", "setting": "[10]", "value": 0.2, "unit": "µg/mL"}, {"measurement": "MIC", "setting": "[11]; Staphylococcus epidermidis, 2479, Table A, read-out: MIC", "value": 12.5, "unit": "µg/mL"}, {"measurement": "MIC", "setting": "[11]; Table B", "value": 12.5, "unit": "µg/mL"}, {"measurement": "MIC", "setting": "[12]", "value": "> 100", "unit": "µg/mL"}, {"measurement": "MIC", "setting": "[13]", "value": 25, "unit": "µg/mL"}, {"measurement": "MIC", "setting": "[14]", "value": "> 100", "unit": "µg/mL"}, {"measurement": "MIC", "setting": "[15]; Enterococcus faecalis, 34358, Table A, read-out: MIC", "value": 0.2, "unit": "µg/mL"}, {"measurement": "MIC", "setting": "[15]; Table B", "value": 0.2, "unit": "µg/mL"}, {"measurement": "MIC", "setting": "[16]", "value": 2, "unit": "µg/mL"}]}
{"molecule": "virginiamycin", "values": [{"measurement": "Feed/gain, days 3-10", "setting": "[17]; 10.0 ppm in feed", "value": "99.8 % of control"}, {"measurement": "Feed/gain, days 3-17", "setting": "[17]; 10.0 ppm in feed", "value": "97.5 % of control"}, {"measurement": "Feed/gain, days 10-17", "setting": "[17]; 10.0 ppm in feed", "value": "96.6 % of control"}, {"measurement": "Mortality", "setting": "[17]; 10.0 ppm in feed", "value": 4}, {"measurement": "Weight, day 10", "setting": "[17]; 10.0 ppm in feed", "value": "100.3 % of control"}, {"measurement": "Weight, day 17", "setting": "[17]; 10.0 ppm in feed", "value": "101.8 % of control"}, {"measurement": "Feed/gain, days 3-10", "setting": "[17]; 50.0 ppm in feed", "value": "92.8 % of control"}, {"measurement": "Feed/gain, days 3-17", "setting": "[17]; 50.0 ppm in feed", "value": "83.2 % of control"}, {"measurement": "Feed/gain, days 10-17", "setting": "[17]; 50.0 ppm in feed", "value": "74.3 % of control"}, {"measurement": "Mortality", "setting": "[17]; 50.0 ppm in feed", "value": 2}, {"measurement": "Weight, day 10", "setting": "[17]; 50.0 ppm in feed", "value": "101.5 % of control"}, {"measurement": "Weight, day 17", "setting": "[17]; 50.0 ppm in feed", "value": "120.2 % of control"}, {"measurement": "% PR (percent propionate)", "setting": "[18]", "value": "69 % of control"}, {"measurement": "ACE (acetate)", "setting": "[18]", "value": "53 % of control"}, {"measurement": "BUT (butyrate)", "setting": "[18]", "value": "153 % of control"}, {"measurement": "ETOH (ethanol)", "setting": "[18]", "value": "25 % of control"}, {"measurement": "GLU (glucose)", "setting": "[18]", "value": "180 % of control"}, {"measurement": "IBU (isobutyrate)", "setting": "[18]", "value": "0 % of control"}, {"measurement": "IVA (isovalerate)", "setting": "[18]", "value": "0 % of control"}, {"measurement": "LLA (L-lactate)", "setting": "[18]", "value": "4 % of control"}, {"measurement": "LYS (lysine)", "setting": "[18]", "value": "94 % of control"}, {"measurement": "PRO (propionate)", "setting": "[18]", "value": "44 % of control"}, {"measurement": "TOTAL (total volatile fatty acids)", "setting": "[18]", "value": "63 % of control"}, {"measurement": "VAL", "setting": "[18]", "value": "0 % of control"}]}
{"molecule": "CO[C@H]1/C=C/O[C@@]2(C)Oc3c(C)c(O)c4c(O)c(c(/C=N/N5CCN(C)CC5)c(O)c4c3C2=O)NC(=O)/C(C)=C\\C=C\\[C@H](C)[C@H](O)[C@@H](C)[C@@H](O)[C@@H](C)[C@H](OC(C)=O)[C@@H]1C", "note": "[rifampin]", "values": [{"measurement": "Zone of inhibition (diameter)", "setting": "[19]; disk 5 μg", "value": "10-12 mm"}]}
{"molecule": "CCC[C@@H]1C[C@@H](C(=O)N[C@@H]([C@H]2O[C@H](SC)[C@H](O)[C@@H](O)[C@H]2O)[C@@H](C)O)N(C)C1", "note": "[lincomycin]", "values": [{"measurement": "Susceptibility (diffusion method)", "setting": "[19]; disk 2 μg", "value": "resistant"}]}
